Test results reported in article PMC8596132 (Advanced Science, 2021).
Where two headings read alike, the source gives them in different places. Bridge positions count the residues as written; N and C are the ends. Peptide text beside a SMILES is read from it.

Legend:
[1] = target: T1, mouse TRPM8 channel (Mus musculus, UniProt Q8R4D5); assay: whole-cell patch-clamp recording, menthol activation of TRPM8; type: cell-based
T1 construct: expressed in transfected cells; host or cells: HEK293 / HEK293T cells
T1 sequence (Q8R4D5 whole entry): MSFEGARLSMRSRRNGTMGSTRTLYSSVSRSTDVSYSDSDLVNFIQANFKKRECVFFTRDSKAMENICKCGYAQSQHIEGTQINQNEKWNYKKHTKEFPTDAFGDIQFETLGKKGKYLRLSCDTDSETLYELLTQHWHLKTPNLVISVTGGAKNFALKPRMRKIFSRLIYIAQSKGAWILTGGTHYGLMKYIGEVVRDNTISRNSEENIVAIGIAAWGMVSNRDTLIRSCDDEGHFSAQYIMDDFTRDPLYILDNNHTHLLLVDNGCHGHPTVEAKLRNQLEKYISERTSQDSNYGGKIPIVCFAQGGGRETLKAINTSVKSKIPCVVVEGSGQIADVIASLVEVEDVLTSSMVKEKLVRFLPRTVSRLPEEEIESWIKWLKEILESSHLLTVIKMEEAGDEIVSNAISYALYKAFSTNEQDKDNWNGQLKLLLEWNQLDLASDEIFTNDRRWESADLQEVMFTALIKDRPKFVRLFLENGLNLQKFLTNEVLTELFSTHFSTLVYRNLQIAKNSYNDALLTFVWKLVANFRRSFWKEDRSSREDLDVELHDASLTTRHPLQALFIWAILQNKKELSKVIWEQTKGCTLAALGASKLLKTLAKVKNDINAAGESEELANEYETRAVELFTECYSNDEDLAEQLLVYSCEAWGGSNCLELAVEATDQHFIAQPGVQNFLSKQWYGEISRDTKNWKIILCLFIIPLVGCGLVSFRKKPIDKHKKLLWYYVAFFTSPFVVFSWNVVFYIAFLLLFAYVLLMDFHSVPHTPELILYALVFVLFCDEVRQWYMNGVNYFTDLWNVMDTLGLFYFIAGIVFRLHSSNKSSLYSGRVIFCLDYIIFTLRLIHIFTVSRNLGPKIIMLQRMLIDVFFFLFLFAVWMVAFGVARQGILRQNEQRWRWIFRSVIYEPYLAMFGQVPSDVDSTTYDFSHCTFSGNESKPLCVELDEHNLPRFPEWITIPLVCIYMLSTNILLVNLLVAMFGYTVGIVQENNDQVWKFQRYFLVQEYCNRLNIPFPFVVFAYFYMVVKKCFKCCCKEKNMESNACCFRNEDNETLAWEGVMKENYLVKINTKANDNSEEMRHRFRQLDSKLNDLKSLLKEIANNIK
Description: HEK293T cells were cultured in Dulbecco's modified Eagle's medium with 10% fetal bovine serum, penicillin (100 U mL^−1), and streptomycin ([…]) at 37 °C with 5% CO2. Transient transfection was conducted by using Lipofectamine 2000 (Invitrogen) and following the instruction manual.
(§1) Electrophysiological experiments were performed between 24 and 48 h after transfections. Specifically, single‐channel recordings were conducted about […] after transfection.
Patch‐clamp recordings were performed with a HEKA EPC10 amplifier with PatchMaster software (HEKA) in the whole‐cell, inside‐out, or outside‐out configuration. For whole cell recordings, patch pipettes were prepared from borosilicate glass and fire‐polished to a resistance of ≈3–6 MΩ. Serial resistance was compensated by 60%. Whole‐cell recordings were performed at ±80 mV. For single‐channel recordings, patch pipettes were fire‐polished to a higher resistance of 6–8 MΩ. Current signal was sampled at 10 kHz and filtered at 2.9 kHz. […]
(§2) There were different solutions prepared for different ion channels current recordings. […] TRPM2 currents were recorded with the help of standard bath solution of 147 × 10^−3 M NaCl, 2 × 10^−3 M KCl, 1 × 10^−3 M MgCl2, 10 × 10^−3 M HEPES, 2 × 10^−3 M CaCl2, 13 × 10^−3 M glucose, pH = 7.4 and the pipette solutions of 147 × 10^−3 M NaCl, 1 × 10^−3 M MgCl2, 10 × 10^−3 M HEPES, pH = 7.4. […]

[2] = target: T2, TRPM8 channel (Mus musculus, UniProt Q8R4D5); assay: single-channel patch-clamp recording, menthol activation (outside-out); type: cell-based; conditions: +80 mV
T2 construct: expressed in transfected cells; host or cells: HEK293 / HEK293T cells
T2 sequence (Q8R4D5 whole entry): as above
Description: as §1
(§3) Patch‐clamp recordings were performed with a HEKA EPC10 amplifier with PatchMaster software (HEKA) in the whole‐cell, inside‐out, or outside‐out configuration. For whole cell recordings, patch pipettes were prepared from borosilicate glass and fire‐polished to a resistance of ≈3–6 MΩ. Serial resistance was compensated by 60%. Whole‐cell recordings were performed at ±80 mV. For single‐channel recordings, patch pipettes were fire‐polished to a higher resistance of 6–8 MΩ. Current signal was sampled at 10 kHz and filtered at 2.9 kHz. Membrane potential was clamped at +80 mV. All recordings were performed at room temperature (22 °C) with the maximum variation of 1 °C.
There were different solutions prepared for different ion channels current recordings. For TRPM8, TRPV1, TRPV2, TRPV3, and TRPA1 channels recording, the standard bath and pipette solution contained: 130 × 10^−3 M NaCl, 0.2 × 10^−3 M EDTA, and 3 × 10^−3 M HEPES, pH = 7.2. For TRPM4 channels recording, solutions with 130 × 10^−3 M NaCl and 3 × 10^−3 M HEPES, pH = 7.2 were used as standard bath solution. The pipette solutions required 500 × 10^−6 M CaCl2 mixing with 130 × 10^−3 M NaCl and 3 × 10^−3 M HEPES, pH = 7.2. TRPM2 currents were recorded with the help of standard bath solution of 147 × 10^−3 M NaCl, 2 × 10^−3 M KCl, 1 × 10^−3 M MgCl2, 10 × 10^−3 M HEPES, 2 × 10^−3 M CaCl2, 13 × 10^−3 M glucose, pH = 7.4 and the pipette solutions of 147 × 10^−3 M NaCl, 1 × 10^−3 M MgCl2, 10 × 10^−3 M HEPES, pH = 7.4. For NaV1.5, NaV1.7 channels, the standard bath solution was 140 × 10^−3 M NaCl, 3 × 10^−3 M KCl, 1 × 10^−3 M MgCl2, 1 × 10^−3 M CaCl2, 10 × 10^−3 M HEPES, pH = 7.2 and standard pipette solution was 140 × 10^−3 M CsF, 1 × 10^−3 M EGTA, 10× 10^−3 M NaCl, 10 × 10^−3 M MgCl2, 3 × 10^−3 M KCl, pH = 7.2. To evoke sodium channel currents, a holding potential of −80 mV was used with a testing pulse to +10 mV. […]

[3] = body temperature measurement; type: in vivo; conditions: mice, i.v. 30 µg g^−1, rectal temperature up to 24 h, 5-9 animals
Description: Adult CD1 mice (male, 6–8 weeks) were used for behavioral and primary cultures of DRG neurons studies. Mice were group‐housed under the 12 h light‐dark cycle with access to standard food and water ad libitum. All the animal procedures were approved by the Institutional Animal Care & Use Committee (IACUC) of Zhejiang University.
A digital thermometer (FT3400) was used for body temperature measurement. Adult CD1 male mice were placed into an environmental room maintained at a constant temperature of 22 ± 1 °C. Body temperature was recorded using a rectal probe for mice (FT3400), which was inserted ≈2 cm from the anus. Body temperature was measured before treatment (baseline, BL) and at 5 min, 15 min, 0.5,1,2, 6, and 24 h following DeC‐1.2 (30 mg kg^−1, i.v.) administration.

[4] = target: T3, TRPV2 (Homo sapiens, UniProt Q9Y5S1); assay: whole-cell recording, TRPV2 ligand activation; type: cell-based; conditions: read-out: IC50, inhibition of TRPV2
T3 construct: expressed in transfected cells; host or cells: HEK293T
T3 sequence (Q9Y5S1 1-764): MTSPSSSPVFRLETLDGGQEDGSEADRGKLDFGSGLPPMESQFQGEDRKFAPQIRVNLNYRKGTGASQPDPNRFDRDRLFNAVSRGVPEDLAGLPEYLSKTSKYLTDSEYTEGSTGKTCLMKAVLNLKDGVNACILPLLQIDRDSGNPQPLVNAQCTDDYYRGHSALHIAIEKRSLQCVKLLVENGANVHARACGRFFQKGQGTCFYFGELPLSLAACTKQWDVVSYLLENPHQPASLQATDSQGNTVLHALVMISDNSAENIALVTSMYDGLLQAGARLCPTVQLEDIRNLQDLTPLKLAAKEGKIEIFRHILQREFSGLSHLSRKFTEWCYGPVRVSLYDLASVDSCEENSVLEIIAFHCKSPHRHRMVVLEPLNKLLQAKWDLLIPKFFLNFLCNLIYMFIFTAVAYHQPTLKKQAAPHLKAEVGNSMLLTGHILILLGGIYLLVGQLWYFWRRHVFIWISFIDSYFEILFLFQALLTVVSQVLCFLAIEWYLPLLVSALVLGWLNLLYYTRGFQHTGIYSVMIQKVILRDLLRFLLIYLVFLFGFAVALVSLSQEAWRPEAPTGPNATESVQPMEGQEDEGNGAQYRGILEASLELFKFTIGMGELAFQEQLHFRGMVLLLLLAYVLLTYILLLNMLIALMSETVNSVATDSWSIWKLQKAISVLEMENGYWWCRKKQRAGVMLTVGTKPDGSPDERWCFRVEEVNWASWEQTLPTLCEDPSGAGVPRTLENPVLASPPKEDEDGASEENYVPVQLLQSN
Description: as §3
as §2, with “recordings. For TRPM8, TRPV1, TRPV2, TRPV3, and TRPA1 channels recording, the standard bath and pipette solution contained: 130 × 10^−3 M NaCl, 0.2 × 10^−3 M EDTA, and 3 × 10^−3 M HEPES, pH = 7.2. For TRPM4 channels recording, solutions with 130 × 10^−3 M NaCl and 3 × 10^−3 M HEPES, pH = 7.2 were used as standard bath solution.” for “recordings.”

C[C@@H]1NC(=O)[C@H](C)NC(=O)[C@H](CCCNC(=N)N)NC(=O)[C@H](CO)NC(=O)[C@H](CC(N)=O)NC(=O)[C@H](CCCNC(=N)N)NC(=O)[C@@H](N)CSSC[C@@H](C(=O)O)NC(=O)[C@H](CCCCN)NC(=O)[C@H](CCC(N)=O)NC(=O)[C@H](CO)NC(=O)[C@H](CC(=O)O)NC(=O)[C@H](Cc2c[nH]cn2)NC1=O [DeC‐1.1] (H-CRNSRAAHDSQKC-OH; disulfide 1-13)
IC50 ([1]; SEM): 133 ± 73.5 µM

C[C@@H]1NC(=O)[C@H](CCCNC(=N)N)NC(=O)[C@H](CC(=O)O)NC(=O)[C@H](CCCNC(=N)N)NC(=O)[C@H](CCCNC(=N)N)NC(=O)[C@@H](N)CSSC[C@@H](C(=O)O)NC(=O)[C@H](CCCNC(=N)N)NC(=O)[C@H](CCC(N)=O)NC(=O)[C@H](CCCNC(=N)N)NC(=O)[C@H](Cc2ccc(O)cc2)NC(=O)[C@H](Cc2c[nH]cn2)NC(=O)[C@H](CCCNC(=N)N)NC1=O [DeC‐1.2] (H-CRRDRARHYRQRC-OH; disulfide 1-13)
open probability of TRPM8 with DeC-1.2 plus menthol ([2]; outside-out, menthol 1 × 10^−3 M + DeC-1.2 100 × 10^−6 M, mean ± SEM, n = 5, SEM): 18.83 ± 1.92%
effect on body temperature [3]: did not significantly alter body temperature
IC50 ([1]; whole-cell patch clamp, TRPM8 expressed in HEK293 cells, −80 mV, 22 °C, n = 3, mean ± SEM, read-out: IC50, inhibition of menthol-induced TRPM8 activation): 0.0045 ± 0.003 µM
IC50 [4]: ~10 µM

CC1CCC(C(C)C)C(O)C1 (stereo not shown) [menthol]
maximum open probability of TRPM8 activation by menthol ([2]; saturating menthol 1 × 10^−3 M alone): about 70%
single-channel conductance of TRPM8 with menthol ([2]; saturating menthol 1 × 10^−3 M alone, mean ± SEM, n = 3, SEM): 58.83 ± 1.85 pS
